Measurements reported in patent publication US20260107927A1, “ZEBRAFISH ANIMAL MODEL FOR INFLAMMATORY DISEASES AND METHOD FOR SCREEING ANTI-INFLAMMATORY AGENTS USING SAME” (RAYDEL KOREA CO., LTD., priority 2022, published 2026).

Tests used:
zebrafish embryos [1] = assay: Combined microinjection of CML with test substances into zebrafish embryos: survival rate and development; type: in vivo, zebrafish (Danio rerio); details: for survival rate of embryos: co-injected with 500 ng CML, 43 ng Remsima or 44 ng Actemra, after 24 hours, FIG. 3; for rate of development: co-injected with CML, 25 hours post-injection; for rate of development / developmental defects: FIG. 4; for developmental defects: microinjected mixture with CML
Protocol: The present inventors constructed a zebrafish embryonic animal model microinjected with CML to establish an acute cytokine storm induction system. After confirming under a microscope that the freshly spawned zebrafish embryos were 30 minutes post-fertilization (0.5 hour post fertilization (0.5 hpf)), the fertilized embryos that were dividing normally were selected. A capillary glass tube (TW100F-4, World Precision Instruments, Sarasota, FL, USA) was inserted into a micro-glass needle maker (PC-10, Narishege, Tokyo, Japan), and the coil was adjusted to be in the center of the capillary glass tube, and then a needle was made at a temperature of 71.3° C. The tip of the needle was sharpened by cutting it diagonally using a sharp forcep, a hole was made, and 5 μL of injection cocktail solution was added to the microglass needle.
(§1) Eggs were densely packed and arranged at appropriate intervals on a 1% agarose gel with grooves of appropriate spacing to facilitate rapid microinjection. A microglass needle was attached to a microinjector (PV-830, World Precision Instruments, Sarasota, FL, USA), 5 μL of mineral oil was spread on a graduated hematocytometer, the needle was placed on top of it, and the contents were injected. The size of the bubble formed was measured and calibrated to the desired volume, after which it was injected into zebrafish embryos at the 2-cell and 4-cell stages.
At this time, in order to minimize errors in the microinjection process, microinjection was performed as much as possible into the yolk area. After microinjection, the embryos were separated from the agarose gel and placed in a Petri dish, which was then filled with 20 mL of egg water (0.02 mg/L methylene blue) and stored at 28° C. All injection processes were performed under a stereomicroscope (SMZ-168, Motic, Hong Kong) at 20× magnification.

zebrafish adults [2] = assay: Intraperitoneal CML plus test substances in zebrafish adults: recovery of swimming ability and survival; type: in vivo, zebrafish (Danio rerio); details: for swimming ability compared with CML injected group / recovery of ability to swim compared with CML injected group: co-injected with CML; for swimming ability compared with CML injected group: 30 minutes after injection; for survival rate of zebrafish adults: combined treatment with CML, FIG. 11
Source text: The cytokine storm suppression ability of the test substances was compared by confirming the swimming ability of zebrafish of the groups injected with PBS, CML, CML and Remsima (Infliximab), and CML and Actemra (Tocilizumab) via intraperitoneal administration (FIG. 9).
The effects of the test substances in the CML and Remsima (Infliximab) injected group and the CML and Actemra (Tocilizumab) injected group were compared.

[3] = tested on: liver tissue of zebrafish adults; assay: Hematoxylin-eosin (H&E) staining of liver tissue: inflammatory cell infiltration; type: in vivo, zebrafish (Danio rerio)
Protocol: To compare the degree of acute cytokine storm induction by CML and alleviation, hematoxylin-eosin (H&E) staining was performed on zebrafish adults of the PBS-injected and CML-injected groups, and the degree of inflammatory cell infiltration in the liver tissue was investigated.
That is, the inhibitory effect of the IL-6 inhibitor Actemra (Tocilizumab) on inflammation caused by CML-induced glycation toxicity was greater than that of the TNF-α inhibitor Remsima (Infliximab).

zebrafish adults [4] = assay: Plasma total cholesterol (TC) and triglyceride (TG) after CML with or without test substances; type: in vivo, zebrafish (Danio rerio); details: for plasma triglyceride (TG) concentration: FIG. 15
Protocol: Zebrafish adults were treated with CML at a concentration of 3 mM, and Actemra (Tocilizumab) and Remsima (Infliximab) were simultaneously treated to confirm the effects of the test substances on reducing total cholesterol (TC) and triglyceride (TG).
Blood was collected from zebrafish in each group, plasma was isolated, and total cholesterol (TC) and triglyceride (TG) were analyzed.

serum amyloid A (SAA) = assay: Plasma serum amyloid A after CML with or without test substances; type: in vivo, zebrafish (Danio rerio); details: FIG. 16
Protocol: (§2) Blood was collected from zebrafish in each group, plasma was isolated, and total cholesterol (TC) and triglyceride (TG) were analyzed. Blood was collected from zebrafish in each group, plasma was isolated, and serum amyloid A (SAA), a biomarker of hepatitis induction, interleukin-6 (IL-6), a factor that induces an acute cytokine storm in the liver, and tumor necrosis factor-α (TNF-α), an inflammatory cytokine involved in liver inflammation were analyzed.

interleukin-6 (IL-6) = assay: Plasma interleukin-6 after CML with or without test substances; type: in vivo, zebrafish (Danio rerio); details: FIG. 17
Protocol: as §2

[5] = tested on: tumor necrosis factor-α (TNF-α); assay: Plasma tumor necrosis factor-α after CML with or without test substances; type: in vivo, zebrafish (Danio rerio); details: FIG. 18
Protocol: as §2

zebrafish embryos [6] = assay: CML microinjection into zebrafish embryos: survival rate and embryo development; type: in vivo, zebrafish (Danio rerio)
Protocol: The present inventors constructed a zebrafish embryonic animal model microinjected with CML to establish an acute cytokine storm induction system. After confirming under a microscope that the freshly spawned zebrafish embryos were 30 minutes post-fertilization (0.5 hour post fertilization (0.5 hpf)), the fertilized embryos that were dividing normally were selected. […] The tip of the needle was sharpened by cutting it diagonally using a sharp forcep, a hole was made, and 5 μL of injection cocktail solution was added to the microglass needle.
as §1
At this time, in order to minimize errors in the microinjection process, microinjection was performed as much as possible into the yolk area. After microinjection, the embryos were separated from the agarose gel and placed in a Petri dish, which was then filled with 20 mL of egg water (0.02 mg/L methylene blue) and stored at 28° C.
To compare the survival rates of zebrafish embryos, the inventors prepared a non-injected group (No injection), a PBS-injected control group (PBS control), and a CML-injected group.

zebrafish adults [7] = assay: Intraperitoneal CML injection into zebrafish adults: swimming ability, acute paralysis, survival
Protocol: Movements of 10 zebrafish adults (16±3 weeks old) injected intraperitoneally with CML (250 μg, 10 μL) solution (final conc. of CML: 3 mM) and 10 zebrafish adults injected with PBS were observed 30 minutes and 1 hour after injection.

[8] = intraperitoneal, 1 hour after injection, FIG. 9
[9] = treated simultaneously with CML, FIGS. 12 and 13
[10] = treated simultaneously with CML
[11] = CML-injected embryos, about 25 hours post-fertilization

Compound	survival rate of embryos (zebrafish embryos [1]) [%]	rate of development (zebrafish embryos [1])	developmental defects (zebrafish embryos [1])	swimming ability compared with CML injected group (zebrafish adults [2]; intraperitoneal, FIG. 9)	recovery of ability to swim compared with CML injected group (zebrafish adults [2]; [8])	survival rate of zebrafish adults (zebrafish adults [2])	inflammatory cell infiltration in liver tissue [3, 9]	serum amyloid A (SAA) (serum amyloid A (SAA); [10]) [ng/mL]	IL-6 (interleukin-6 (IL-6); [10]) [pg/mL]	TNF-α [5, 10] [ng/mL]	further results
Actemra: biopharmaceutical, an IL-6 inhibitor, used as treatment agent for rheumatoid arthritis	53.1	almost the same rate of development as embryos injected with PBS	no developmental defects were observed	More zebrafish	more zebrafish had regained the ability to swim	approximately 97%	15-17%	38.8 ± 2.0	51.8 ± 1.8	6.8 ± 2.6	recovery of swimming ability and survival rate compared with 43 μg Remsima (zebrafish adults [2]; 44 μg Actemra with CML, intraperitoneal, FIGS. 10 and 11): recovery of swimming ability was better and survival rate was increased; plasma triglyceride (TG) concentration (zebrafish adults [4]; treated simultaneously with 3 mM CML): lowest
N[C@@H](CCCCNCC(=O)O)C(=O)O [CML, N-ε-carboxymethyllysine]											survival rate of zebrafish embryos (zebrafish embryos [6]; 500 ng CML microinjected (20 nL, 25 mg/mL in PBS), 24 hours, FIG. 1): 23.5%; developmental stage of embryos (zebrafish embryos [6]; 25 hours after CML injection, FIG. 2): 21-somite stage; developmental morphology (zebrafish embryos [6]; CML-injected embryos): developmental malformations were present in the head and tail; developmental state, equivalent time after fertilization (zebrafish embryos [6]; [11]): about 19.5 hours after fertilization; number of somites (zebrafish embryos [6]; [11]): about 21; number of zebrafish showing recovery of swimming ability (zebrafish adults [2]; CML group, 3 mM intraperitoneal, 1 hour after injection, FIG. 9): 2 to 3; inflammatory cell infiltration in liver tissue ([3]; CML alone, FIGS. 12 and 13): approximately 23%; inflammatory cell infiltration in liver tissue ([3]; CML only injection group, FIG. 8): 27%; plasma total cholesterol (TC) concentration (zebrafish adults [4]; CML alone, 3 mM, FIG. 14): highest; plasma triglyceride (TG) concentration (zebrafish adults [4]; CML alone, 3 mM): highest; serum amyloid A (SAA) (serum amyloid A (SAA); CML alone): 59.7 ± 1.6 ng/mL; IL-6 (interleukin-6 (IL-6); CML alone): 76.4 ± 6.1 pg/mL; TNF-α ([5]; CML alone): 43.5 ± 0.4 ng/mL; zebrafish that recovered the ability to swim (zebrafish adults [7]; CML 250 μg intraperitoneal (final 3 mM), 1 hour after injection, FIGS. 5 and 6): 25%; movement / swimming ability (zebrafish adults [7]; CML 250 μg, 10 μL intraperitoneal (final 3 mM), first 30 minutes after injection): immobilized and lying on the bottom; survival rate of zebrafish adults (zebrafish adults [7]; CML alone, intraperitoneal, after 60 minutes, FIG. 8): less than 49%
Remsima: biopharmaceutical, a TNF-α inhibitor, used as treatment agent for rheumatoid arthritis	38.4	almost the same rate of development as embryos injected with PBS	no developmental defects were observed	More zebrafish	more zebrafish had regained the ability to swim	63%	approximately 23%	41.2 ± 5.3	62.8 ± 3.1	41.6 ± 5.8	
